Measurements taken from patent US20260176289A1, “SMALL MOLECULE INHIBITORS OF KRAS PROTEINS” (Merck Sharp & Dohme LLC, priority 2022, published 2026).
Where two headings read alike, the source gives them in different places.

What was measured:
[1] = molecular target: KRAS-G12C (C51S/C80L/C118S) (Homo sapiens, UniProt P01116, C118S/C51S/C80L/G12C); test: SOS-catalyzed nucleotide exchange assay (Procedure A, TR-FRET), KRAS-G12C; assay type: biochemical; conditions: nucleotide exchange, Procedure A; read-out: KRAS G12C GNE IC50
In short: (§1)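 RAS (G12C carries C51S/C80L/C118S) loaded with Bodipy-GDP, complexed with Tb-streptavidin; cpd 60 min RT; + SOS/3 mM GTP. G12C 3/40 nM, WT 1/40, NRAS 1.25/40 nM RAS/SOS, 60 min; G12V 1.25/160 nM, 90 min. Normalized to DMSO and saturating inhibitor; 4PL fit.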

AsPC-1 cells = test: Cellular phospho-ERK assay, AsPC-1 cells (homozygous KRAS-G12D); assay type: cell-based; conditions: read-out: AsPC1 pERK IC50
In short: (§2)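 Cells seeded at 10,000-15,000 per well were incubated overnight, then exposed to compound for 2 hours at 37 °C in a 10-point, 1:3 series topping at 30 μM final. Lysates were assayed by Alpha SureFire Ultra multiplex for p-ERK and total ERK; IC50 came from a 4-parameter logistic fit of their ratio.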

KRAS-G13D = KRAS-G13D (Homo sapiens, UniProt P01116, G13D); test: SOS-catalyzed nucleotide exchange assay (Procedure A, TR-FRET), KRAS-G13D; assay type: biochemical; conditions: nucleotide exchange, Procedure A; read-out: KRAS G13D GNE IC50
SW620 cells = test: Cellular phospho-ERK assay, SW620 cells (homozygous KRAS-G12V); assay type: cell-based; conditions: read-out: SW620 pERK IC50
In short: as §2

KRAS-WT = KRAS-WT (Homo sapiens, UniProt P01116); test: SOS-catalyzed nucleotide exchange assay (Procedure A, TR-FRET), KRAS-WT; assay type: biochemical; conditions: nucleotide exchange, read-out: KRAS WT GNE IC50
In short: as §1

KRAS-G12D = KRAS-G12D (Homo sapiens, UniProt P01116, G12D); test: SOS-catalyzed nucleotide exchange assay (Procedure A, TR-FRET), KRAS-G12D; assay type: biochemical; conditions: nucleotide exchange, read-out: KRAS G12D GNE IC50
In short: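 Signal ratio (520/495 nm, excitation 340 nm) reports Bodipy-GDP retention on biotinylated RAS after SOS-catalyzed exchange with 3 mM GTP. SOS was 40 nM, except 160 nM for G12V. Room-temperature exchange lasted 60 min (90 min for G12V), following a 60 min compound preincubation.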

KRAS-G12V = KRAS-G12V (Homo sapiens, UniProt P01116, G12V); test: SOS-catalyzed nucleotide exchange assay (Procedure A, TR-FRET), KRAS-G12V; assay type: biochemical; conditions: nucleotide exchange, read-out: KRAS G12V GNE IC50
In short: as §1

MKN-1 cells = test: Cellular phospho-ERK assay, MKN-1 cells (amplified wild-type KRAS); assay type: cell-based; conditions: read-out: MKN1 pERK IC50
In short: as §2

[2] = Homo sapiens, ASPC1, 2 h, 2 hours compound incubation
[3] = Homo sapiens, SW-620, 2 hours compound incubation
[4] = Homo sapiens, 2 hours compound incubation
[5] = Homo sapiens, ASPC1, 2 h, KRAS-G12D, 2 hours
[6] = Homo sapiens, SW-620, KRAS-G12V, 2 hours
[7] = Homo sapiens, amplified wild-type KRAS, 2 hours

Compound	IC50 [1] [nM]	IC50 (AsPC-1 cells; [2]) [nM]	IC50 (KRAS-G13D) [nM]	IC50 (SW620 cells; [3]) [nM]	IC50 (KRAS-WT) [nM]	IC50 (KRAS-G12D) [nM]	IC50 (KRAS-G12V) [nM]	IC50 (MKN-1 cells; [4]) [nM]	IC50 (AsPC-1 cells; [5]) [nM]	IC50 (SW620 cells; [6]) [nM]	IC50 (MKN-1 cells; [7]) [nM]	IC50 (AsPC-1 cells; 2 hours compound incubation) [nM]	IC50 (SW620 cells; 2 hours compound incubation) [nM]	IC50 (MKN-1 cells; 2 hours compound incubation) [nM]
CC(C)c1c(Cl)cc2[nH]ncc2c1-c1nccc2c1sc1nc(OC[C@@]34CCCN3C[C@H](F)C4)nc(N3CCOC[C@@](C)(O)C3)c12 [Ex-145, (6S)-4-(8-(6-chloro-5-isopropyl-1H-ind-azol-4-yl)-2-(((2R, 7aS)-2-fluorotetra-hydro-1H-pyrrol-izin-7a(5H)-yl)meth-oxy)pyrido[4′,3′:4,5]thieno[2,3-d]pyr-imidin-4-yl)-6-meth-yl-1,4-oxazepan-6-ol]	44.3	119	27.8	120	58.9	34.3	73.2	155						
C#Cc1cc(F)cc2cc3[nH]ncc3c(-c3nccc4c3sc3nc(OC[C@@]56CCCN5C[C@H](F)C6)nc(N5CCOC[C@@](C)(O)C5)c34)c12 [Ex-165]	21.7	40.7	14.1	31.2	18.6	6.79	11	41.5						
CC[C@@H]1CCCc2cc3[nH]ncc3c(-c3nccc4c3sc3nc(OC[C@@]56CCCN5C[C@H](F)C6)nc(N5CCOC[C@@](C)(O)C5)c34)c21 [Ex-176]	10.5	51.9	12.5	22.7	19.8	6.22	11.6	44.8						
C[C@@]1(O)COCCN(c2nc(OC[C@@]34CCCN3C/C(=C\F)C4)nc3sc4c(-c5c(C6CC6)c(Cl)cc6[nH]ncc56)nccc4c23)C1 [Ex-208, (6S)-4-(8-(6-chloro-5-cyclopropyl-1H-indazol-4-yl)-2-(((S,Z)-2-(fluoromethylene)tetrahydro-1H-pyrrolizin-7a(5H)-yl)methoxy)pyrido[4′,3′:4,5]thieno[2,3-d]pyrimidin-4-yl)-6-methyl-1,4-oxazepan-6-ol]	44.5	20.4	20.2	17	5.79	2.44	11.1	63.6						
[2H]C1([2H])CC[C@]2(COc3nc(N4CCOC[C@@](C)(O)C4)c4c(n3)sc3c(-c5c(C6CC6)c(Cl)cc6[nH]ncc56)nccc34)N1C[C@H](F)C2([2H])[2H] [Ex-210, (6S)-4-(8-(6-chloro-5-cyclopropyl-1H-indazol-4-yl)-2-(((2R,7aS)-2-fluoro-tetrahydro-1H-pyrrolizin-7a(5H)-yl-1,1,5,5-d4)meth-oxy)pyrido[4′,3′: 4,5]thieno[2,3-d]pyrimidin-4-yl)-6-methyl-1,4-oxaze-pan-6-ol]	13.4	35	12.7	12.3	12.2	4.71	14.1	20.1						
C[C@@]1(O)COCCN(c2nc(OC[C@@]34CCCN3C[C@@]3(CC3(F)F)C4)nc3sc4c(-c5c(C6CC6)c(Cl)cc6[nH]ncc56)nccc4c23)C1 [Ex-211, (6S)-4-(8-(6-chloro-5-cyclopropyl-1H-indazol-4-yl)-2-(((1S,7a′S)-2,2-difluorodihydro-1′H,3′H-spiro[cyclo-propane-1,2′-pyrrol-izin]-7a′(5′H)-yl)-methoxy)pyrido [4′,3′:4,5]thieno[2,3-d]pyrimidin-4-yl)-6-methyl-1,4-oxaze-pan-6-ol]	45.4	56.9	15	49.4	16.5	5.85	12.1	83						
C=C1CN2C[C@H](F)C[C@@]2(COc2nc(N3CCOC[C@@](C)(O)C3)c3c(n2)sc2c(-c4c(C5CC5)c(Cl)cc5[nH]ncc45)nccc23)C1 [Ex-223, (6S)-4-(8-(6-chloro-5-cyclopropyl-1H-indazol-4-yl)-2-(((2R,7aR)-2-fluoro-6-methylenetetra-hydro-1H-pyrrol-izin-7a(5H)-yl)methoxy)pyrido [4′,3′:4,5]thieno[2,3-d]pyrimidin-4-yl)-6-methyl-1,4-oxaze-pan-6-ol]	111	63.8	37.6	23.6	24.5	9.27	34.1	42.9						
C=C(C)c1c(C)cc2[nH]ncc2c1-c1nncc2c1sc1nc(OC[C@@]34CCCN3C[C@H](F)C4)nc(N3CCOC[C@@](C)(O)C3)c12 [Ex-278]	74.9		20.3		46	14.6	30.4		364	103	98.2			
Cc1cc2[nH]ncc2c(-c2nncc3c2sc2nc(OC[C@@]45CCCN4C[C@H](F)C5)nc(N4CCOC[C@@](C)(O)C4)c23)c1C1CC1 [Ex-279, (6S)-4-(8-(5-cyclopropyl-6-methyl-1H-indazol-4-yl)-2-(((2R,7aS)-2-fluorotetrahydro-1H-pyrrolizin-7a(5H)-yl)methoxy)pyrimi-do[5′,4′:4,5]thieno[2,3-d]pyridazin-4-yl)-6-methyl-1,4-oxazepan-6-ol]	97.6		7.59		13.6	5.15	16		114	99.8	43			
(6S)-4-(8-(6-chloro- 5-cyclopropyl-1H- indazol-4-yl)-2- (((6'R,7a′R)-6′- fluorodihydro- 1′H,3′H-spiro[cyclo- propane-1,2′-pyr- rolizin]-7a′(5′H)- yl)methoxy)pyrido [4′,3′:4,5]thieno[2,3- d]pyrimidin-4-yl)-6- methyl-1,4-oxaze- pan-6-ol [Ex-218]	77.4		7.46		6.76	3.42	8.69					31.9	20.2	37.4
